From US12691124B2, “Methods of controlling and improving brain health” (ICAHN SCHOOL OF MEDICINE AT MOUNT SINAI, priority 2019, dated 2026)

Test system: primary cortical neurons
Experiment: Gene expression in primary cortical neurons
Assay type: cell-based, mouse
Text: Primary Cortical Neuron Culture. Embryonic day 18 (E18) timed-pregnant female mice were anesthetized with CO2 and sacrificed by cervical dislocation. In a dissection hood, 24-26 embryos per experiment were collected through an incision of the mother's abdomen, taken out of the amniotic sacs and decapitated in ice cold Hank's Balanced Salt Solution (HBSS). Using fine scissors and forceps, brains were rapidly dissected and the cortex cleared from meninges and isolated under a dissection microscope. Cortices were collected in ice cold HBSS and kept on ice until all embryos had been dissected. In a tissue culture hood, HBSS was removed and the cortex tissue digested by 0.25% Trypsin-EDTA for 12 minutes at 37° C., followed by DNase1 treatment for 10 minutes at 37° C. The tissue was dissociated by serial trituration with a 25 ml serological pipette, followed by trituration with 10 ml and 5 ml serological pipettes. Cell suspension was washed once with DMEM medium, supplemented with 10% FBS and 1% penicillin/streptomycin and passed through a […] cell strainer before counted on a hemocytometer. Single cells were seeded on poly-D-lysine (0.1 mg ml-1) coated wells at a density of 1×10^6 cells per well on a 12-well plate. Cells were grown in Neurobasal medium, complemented with B27 supplement, N2 supplement, and 0.5 mM L-glutamine and maintained at 37° C. in 5% CO2 for 1 week. […] Cultures were washed with phosphate-buffered saline (PBS) on ice and processed for RNA isolation using TRIzol/Chloroform extraction.
RNA Isolation. For in vitro gene expression analysis, neuronal culture plates were washed once with PBS, and TRIzol was added directly to cultures to isolate RNA (n=3 per group). For in vivo gene expression analysis, mice were anesthetized with CO2 and decapitated. The striata from two control and acute or chronic I-BET treated mice were rapidly dissected on ice and frozen in liquid nitrogen. RNA extraction from frozen samples was performed using TRIzol/Chloroform according to manufacturer's instructions (Invitrogen Corporation, Carlsbad, CA). RNA was precipitated overnight at −80° C. in isopropanol with 0.15 M sodium acetate, washed twice with 70% ethanol, air-dried, and resuspended in RNase-free water. RNA samples were purified using Rneasy Micro columns (Qiagen) with on-column DNAse treatment as specified by manufacturer. […]
RNA Sequencing. […] Duplexed libraries were sequenced on HiSeq 2000, typically yielding on average 60 million, 100 bp long single-end reads per sample (Illumina). […] After filtering out adaptor and low quality reads, reads were mapped using TopHat (version 2.0.8) to the mm9 mouse genome. […] Differentially expressed autosomal genes between control and acute I-BET858 or chronic I-BET858 libraries were determined using a p-value <0.05 and fold change of >2. […]

Q: With CC(=O)N1c2ccc(-c3ccc(CN4CCCCC4)cc3)cc2[C@H](Nc2ccccc2)CC1C (stereo in doubt) [IBET858] as the compound, how does the “cellular composition of the culture and cell identity gene expression” value (1 week IBET858) read?
A: does not change

Q: And the “autophagy, proteolysis and pro-survival genes” value (chronic BET inhibition)?
A: up-regulation

Q: And the “metabolic genes (amino acid synthesis and import, glycolysis/TCA cycle, oxidative phosphorylation, fatty acid metabolism)” value (chronic BET inhibition, day 14)?
A: down-regulated

Q: And the “genes decreased by rapamycin that were also decreased by IBET858” value (one week treatment, 93/165)?
A: 56%
